Assays:
Type in all cases: cell-based
human adipocytes [1] = assay: Release of tritium label from radiolabeled palmitate (lipid mobilizing activity); details: for % Tritium Label Release with Agent: 4 hours, 37° C., Table 6 experiment
Description: Lipid mobilizing activity was assessed by assaying release of tritium label from radiolabeled palmitate. This assay was performed by maintaining human pre-adipocytes in Adipocyte Growth Medium (AGM), which is Dulbecco's Modified Eagle's Medium (DMEM) mixed 1:1 by volume with Ham's F-10 medium. Ham's F-10 medium comprises 15 millimolar HEPES buffer adjusted to pH 7.4 and supplemented with biotin, pantothenate, human recombinant insulin, dexamethasone, fungicide, bactericide, and 3% (v/v) fetal bovine serum). Pre-adipocytes differentiated to become mature adipocytes by three weeks of maintenance in AGM. On the day prior to assay, the adipocytes were washed and incubated overnight in Krebs-Ringers buffer comprising 0.1% fatty acid-free bovine serum albumin (BSA) and comprising 1 microCurie per milliliter of tritiated (9,10-^3H) palmitate. The following day, the medium was removed, and the cells were washed three times […]. Isoproterenol (0 to 5×10^−8 molar), Schistocera gregaria AKH II (0 to 5×10^−5 molar), or Krebs-Ringer buffer (with 0.1% fatty acid-free BSA) containing neither of these was added to the cell suspension in a volume of 150 microliters. The suspensions were incubated for 4 hours at 37° C., and then 100 microliters of each sample was subjected to scintillation counting to detect released label in the supernatant. The total amount of label incorporated was determined for each well by solubilizing the cells using 1% sodium dodecyl sulfate and subjecting the entire contents of the well to scintillation counting. Fractional release of label was calculated by dividing the amount of label detected in cell supernatant by the total amount of label detected in the supernatant and in the cells remaining in the well, and percentage release was calculated by multiplying fractional release by 100.
A similar study was done using the same methods, except that cockroach hypertrehalosemic factor (0 to 5×10^−5 molar) was used in place of S. gregaria AKH II.
A similar tritium label release experiment performed using Heliothis zea AKH II and Locusta migratoria, except that a two-hour incubation period was used in place of a 4 hour incubation period.

human adipocytes [2] = assay: Glycerol release assay
Description: (§1) Human pre-adipocytes were isolated by liposuction and maintained in AGM for three weeks in order to permit the pre-adipocytes to differentiate to become mature adipocytes. AGM was removed, and adipocytes were incubated in Krebs-Ringers buffer comprising 0.1% fatty acid-free BSA at 37° C. for five hours in the presence of selected concentrations (10^−9 to 10^−5 molar) of one of Schistocera gregaria AKH II, cockroach hypertrehalosemic factor (obtained from Sigma Chemical Co, St. Louis, Mo., catalog number P0175), and Locusta migratoria AKH I (obtained from American Peptide Co., Sunnyvale, Calif., catalog number 60-9-18). Glycerol released from the adipocytes was assayed using a commercially available kit (GPO-trinder assay kit available form Sigma Chemical Company, St. Louis, Mo.).
A similar experiment was performed, in which glycerol release from adipocytes was assessed in the presence of the Locusta migratoria AKH I or the cockroach hypertrehalosemic factor or in the presence of isoproterenol.

human adipocytes [3] = assay: Effect of propanolol on agent-induced glycerol release; details: agent 10 micromolar
Description: as §1
Glycerol release assays were performed as described in Example 2, except that the assays were performed using single selected concentrations of one of cockroach hypertrehalosemic factor, Locusta migratoria AKH I, and isoproterenol and multiple selected concentrations of propanolol.

## EVNFSPGWGT (listed as Gromphadorhina portentosa) [cockroach hypertrehalosemic factor, insect AKH family peptide, Sigma Chemical Co. catalog number P0175]
Human adipocytes [1]; agent 1 × 10^−5 molar
  % Tritium Label Release with Agent: 9.08%
Human adipocytes [1]; agent 1 × 10^−6 molar
  % Tritium Label Release with Agent: 8.77%
Human adipocytes [1]; agent 1 × 10^−7 molar
  % Tritium Label Release with Agent: 7.17%
Human adipocytes [1]; agent 1 × 10^−8 molar
  % Tritium Label Release with Agent: 7.24%
Human adipocytes [1]; agent 1 × 10^−9 molar
  % Tritium Label Release with Agent: 6.88%
Human adipocytes [1]; agent 1 × 10^−10 molar
  % Tritium Label Release with Agent: 7.21%
Human adipocytes [1]; agent 5 × 10^−5 molar
  % Tritium Label Release with Agent: 9.7%
Human adipocytes [1]; agent 5 × 10^−6 molar
  % Tritium Label Release with Agent: 9.36%
Human adipocytes [1]; agent 5 × 10^−7 molar
  % Tritium Label Release with Agent: 8.08%
Human adipocytes [1]; conclusion of Example 1, murine adipocytes
  Ability to mobilize lipids in adipocytes: able to mobilize lipids
Human adipocytes [2]; agent 1 × 10^−5, Table 9 experiment
  Glycerol Release with Agent (medium concentration in millimolar): 0.1515 ± 0.0155 millimolar
Human adipocytes [2]; agent 1 × 10^−5 molar, five hours, 37° C., Table 8 experiment
  Glycerol Release with Agent (medium concentration in millimolar): 1.124 millimolar
Human adipocytes [2]; agent 1 × 10^−6, Table 9 experiment
  Glycerol Release with Agent (medium concentration in millimolar): 0.1216 ± 0.0103 millimolar
Human adipocytes [2]; agent 1 × 10^−6 molar, five hours, 37° C., Table 8 experiment
  Glycerol Release with Agent (medium concentration in millimolar): 0.555 millimolar
Human adipocytes [2]; agent 1 × 10^−7, Table 9 experiment
  Glycerol Release with Agent (medium concentration in millimolar): 0.0944 ± 0.00166 millimolar
Human adipocytes [2]; agent 1 × 10^−7 molar, five hours, 37° C., Table 8 experiment
  Glycerol Release with Agent (medium concentration in millimolar): 0.527 millimolar
Human adipocytes [2]; agent 1 × 10^−8, Table 9 experiment
  Glycerol Release with Agent (medium concentration in millimolar): 0.0817 ± 0.0113 millimolar
Human adipocytes [2]; agent 1 × 10^−8 molar, five hours, 37° C., Table 8 experiment
  Glycerol Release with Agent (medium concentration in millimolar): 0.451 millimolar
Human adipocytes [2]; agent 1 × 10^−9 molar, five hours, 37° C., Table 8 experiment
  Glycerol Release with Agent (medium concentration in millimolar): 0.603 millimolar
Human adipocytes [2]; conclusion of Example 2
  Ability to promote lipid mobilization in human adipocytes: able to promote lipid mobilization
Human adipocytes [3]; propanolol 0 molar
  Glycerol Release with Agent (medium concentration in millimolar): 0.1515 ± 0.0155 millimolar
Human adipocytes [3]; propanolol 1 × 10^−5 molar
  Glycerol Release with Agent (medium concentration in millimolar): 0.2033 ± 0.0134 millimolar
Human adipocytes [3]; propanolol 1 × 10^−6 molar
  Glycerol Release with Agent (medium concentration in millimolar): 0.1370 ± 0.0170 millimolar
Human adipocytes [3]; propanolol 1 × 10^−7 molar
  Glycerol Release with Agent (medium concentration in millimolar): 0.1161 ± 0.0232 millimolar

From patent publication US20040224898A1, “Compositions and methods for promoting lipid mobilization in humans” (priority 2002, published 2004)
